Reference: US20230049952A1, “METHODS AND COMPOUNDS FOR RESTORING MUTANT P53 FUNCTION” (PMV Pharmaceuticals, Inc., priority 2020, published 2023)

Tested on: p53 signaling pathway in MT373 tumors
Assay: MT373 syngeneic sarcoma model: mouse p53 signaling pathway profiling panel
Format: in vivo

CCn1c(C#CCNc2ccccc2)cc2cc(CNC3CCN(C)CC3)ccc21 [Compound 1, 1-Anilino-3-{1-ethyl-5-[(1-methyl-4-piperidylamino)methyl]-1H-indol-2-yl}-2-propyne]
Il6 fold increase or percent reduction vs vehicle control (150 mg/kg BIDx1, 8 h): 42.72 fold or %
Jun fold increase or percent reduction vs vehicle control (150 mg/kg BIDx1, 8 h): 32.68 fold or %
Kras fold increase or percent reduction vs vehicle control (150 mg/kg BIDx1, 8 h): 8.77 fold or %
Lig4 fold increase or percent reduction vs vehicle control (150 mg/kg BIDx1, 8 h): 9.59 fold or %
Mdm2 fold increase or percent reduction vs vehicle control (150 mg/kg BIDx1, 8 h): 7.29 fold or %
Mdm4 fold increase or percent reduction vs vehicle control (150 mg/kg BIDx1, 8 h): 0.59 fold or %
Mel1 fold increase or percent reduction vs vehicle control (150 mg/kg BIDx1, 8 h): 3.87 fold or %
Mlh1 fold increase or percent reduction vs vehicle control (150 mg/kg BIDx1, 8 h): 28.64 fold or %
Msh2 fold increase or percent reduction vs vehicle control (150 mg/kg BIDx1, 8 h): 35.13 fold or %
Myod1 fold increase or percent reduction vs vehicle control (150 mg/kg BIDx1, 8 h): 14.90 fold or %
Nf1 fold increase or percent reduction vs vehicle control (150 mg/kg BIDx1, 8 h): 17.13 fold or %
Nfkb1 fold increase or percent reduction vs vehicle control (150 mg/kg BIDx1, 8 h): 6.02 fold or %
Pcna fold increase or percent reduction vs vehicle control (150 mg/kg BIDx1, 8 h): 44.75 fold or %
Pmaip1 fold increase or percent reduction vs vehicle control (150 mg/kg BIDx1, 8 h): 2.33 fold or %
Ppm1d fold increase or percent reduction vs vehicle control (150 mg/kg BIDx1, 8 h): 1.44 fold or %
Prc1 fold increase or percent reduction vs vehicle control (150 mg/kg BIDx1, 8 h): 17.14 fold or %
Prkca fold increase or percent reduction vs vehicle control (150 mg/kg BIDx1, 8 h): 27.03 fold or %
Pten fold increase or percent reduction vs vehicle control (150 mg/kg BIDx1, 8 h): 14.47 fold or %
Pttg1 fold increase or percent reduction vs vehicle control (150 mg/kg BIDx1, 8 h): 3.91 fold or %
Rb1 fold increase or percent reduction vs vehicle control (150 mg/kg BIDx1, 8 h): 1.08 fold or %
Rela fold increase or percent reduction vs vehicle control (150 mg/kg BIDx1, 8 h): 5.08 fold or %
Rprm fold increase or percent reduction vs vehicle control (150 mg/kg BIDx1, 8 h): 1.81 fold or %
Serpinb5 fold increase or percent reduction vs vehicle control (150 mg/kg BIDx1, 8 h): 2.43 fold or %
Sesn2 fold increase or percent reduction vs vehicle control (150 mg/kg BIDx1, 8 h): 2.88 fold or %
Sfn fold increase or percent reduction vs vehicle control (150 mg/kg BIDx1, 8 h): 15.09 fold or %
Sirt1 fold increase or percent reduction vs vehicle control (150 mg/kg BIDx1, 8 h): 24.95 fold or %
Stat1 fold increase or percent reduction vs vehicle control (150 mg/kg BIDx1, 8 h): 1.23 fold or %
Tnf fold increase or percent reduction vs vehicle control (150 mg/kg BIDx1, 8 h): 1.57 fold or %
Traf1 fold increase or percent reduction vs vehicle control (150 mg/kg BIDx1, 8 h): 1.4 fold or %
Trp53bp2 fold increase or percent reduction vs vehicle control (150 mg/kg BIDx1, 8 h): 29.54 fold or %
Trp53 fold increase or percent reduction vs vehicle control (150 mg/kg BIDx1, 8 h): 16.49 fold or %
Apex1 fold increase or percent reduction vs vehicle control (150 mg/kg BIDx1, 24 h): 29.90 fold or %
Atm fold increase or percent reduction vs vehicle control (150 mg/kg BIDx1, 24 h): 24.13 fold or %
Atr fold increase or percent reduction vs vehicle control (150 mg/kg BIDx1, 24 h): 14.58 fold or %
Bag1 fold increase or percent reduction vs vehicle control (150 mg/kg BIDx1, 24 h): 32.76 fold or %
Bax fold increase or percent reduction vs vehicle control (150 mg/kg BIDx1, 24 h): 1.61 fold or %
Bbc3 fold increase or percent reduction vs vehicle control (150 mg/kg BIDx1, 24 h): 2.27 fold or %
Bcl2 fold increase or percent reduction vs vehicle control (150 mg/kg BIDx1, 24 h): 20.93 fold or %
Bid fold increase or percent reduction vs vehicle control (150 mg/kg BIDx1, 24 h): 1.08 fold or %
Birc5 fold increase or percent reduction vs vehicle control (150 mg/kg BIDx1, 24 h): 53.57 fold or %
Brca1 fold increase or percent reduction vs vehicle control (150 mg/kg BIDx1, 24 h): 44.99 fold or %
Brca2 fold increase or percent reduction vs vehicle control (150 mg/kg BIDx1, 24 h): 34.71 fold or %
Btg2 fold increase or percent reduction vs vehicle control (150 mg/kg BIDx1, 24 h): 1.06 fold or %
Casp2 fold increase or percent reduction vs vehicle control (150 mg/kg BIDx1, 24 h): 28.04 fold or %
Ccnb1 fold increase or percent reduction vs vehicle control (150 mg/kg BIDx1, 24 h): 69.21 fold or %
Ccne1 fold increase or percent reduction vs vehicle control (150 mg/kg BIDx1, 24 h): 38.46 fold or %
Ccng1 fold increase or percent reduction vs vehicle control (150 mg/kg BIDx1, 24 h): 6.84 fold or %
Ccnh fold increase or percent reduction vs vehicle control (150 mg/kg BIDx1, 24 h): 16.52 fold or %
Cdc25a fold increase or percent reduction vs vehicle control (150 mg/kg BIDx1, 24 h): 41.75 fold or %
Cdk1 fold increase or percent reduction vs vehicle control (150 mg/kg BIDx1, 24 h): 64.58 fold or %
Cdk4 fold increase or percent reduction vs vehicle control (150 mg/kg BIDx1, 24 h): 55.89 fold or %
Cdkn1a fold increase or percent reduction vs vehicle control (150 mg/kg BIDx1, 24 h): 10.93 fold or %
Cdkn2a fold increase or percent reduction vs vehicle control (150 mg/kg BIDx1, 24 h): 36.93 fold or %
Chek1 fold increase or percent reduction vs vehicle control (150 mg/kg BIDx1, 24 h): 58.77 fold or %
Cradd fold increase or percent reduction vs vehicle control (150 mg/kg BIDx1, 24 h): 18.77 fold or %
Cul9 fold increase or percent reduction vs vehicle control (150 mg/kg BIDx1, 24 h): 1.05 fold or %
Dapk1 fold increase or percent reduction vs vehicle control (150 mg/kg BIDx1, 24 h): 1.14 fold or %
Dnmt1 fold increase or percent reduction vs vehicle control (150 mg/kg BIDx1, 24 h): 22.85 fold or %
E2f1 fold increase or percent reduction vs vehicle control (150 mg/kg BIDx1, 24 h): 26.25 fold or %
E2f3 fold increase or percent reduction vs vehicle control (150 mg/kg BIDx1, 24 h): 39.40 fold or %
Egfr fold increase or percent reduction vs vehicle control (150 mg/kg BIDx1, 24 h): 47.37 fold or %
Egr1 fold increase or percent reduction vs vehicle control (150 mg/kg BIDx1, 24 h): 66.33 fold or %
Ep300 fold increase or percent reduction vs vehicle control (150 mg/kg BIDx1, 24 h): 1.15 fold or %
Ercc1 fold increase or percent reduction vs vehicle control (150 mg/kg BIDx1, 24 h): 34.86 fold or %
Esr1 fold increase or percent reduction vs vehicle control (150 mg/kg BIDx1, 24 h): 1.24 fold or %
Fadd fold increase or percent reduction vs vehicle control (150 mg/kg BIDx1, 24 h): 8.43 fold or %
Fas fold increase or percent reduction vs vehicle control (150 mg/kg BIDx1, 24 h): 1.94 fold or %
Fasl fold increase or percent reduction vs vehicle control (150 mg/kg BIDx1, 24 h): 6.77 fold or %
Foxo3 fold increase or percent reduction vs vehicle control (150 mg/kg BIDx1, 24 h): 1.20 fold or %
Gadd45a fold increase or percent reduction vs vehicle control (150 mg/kg BIDx1, 24 h): 38.66 fold or %
Hif1a fold increase or percent reduction vs vehicle control (150 mg/kg BIDx1, 24 h): 10.42 fold or %
Il6 fold increase or percent reduction vs vehicle control (150 mg/kg BIDx1, 24 h): 85.31 fold or %
Jun fold increase or percent reduction vs vehicle control (150 mg/kg BIDx1, 24 h): 46.70 fold or %
Kras fold increase or percent reduction vs vehicle control (150 mg/kg BIDx1, 24 h): 9.19 fold or %
Lig4 fold increase or percent reduction vs vehicle control (150 mg/kg BIDx1, 24 h): 1.02 fold or %
Mdm2 fold increase or percent reduction vs vehicle control (150 mg/kg BIDx1, 24 h): 5.96 fold or %
Mdm4 fold increase or percent reduction vs vehicle control (150 mg/kg BIDx1, 24 h): 1.22 fold or %
Mel1 fold increase or percent reduction vs vehicle control (150 mg/kg BIDx1, 24 h): 9.59 fold or %
Mlh1 fold increase or percent reduction vs vehicle control (150 mg/kg BIDx1, 24 h): 10.59 fold or %
Msh2 fold increase or percent reduction vs vehicle control (150 mg/kg BIDx1, 24 h): 26.97 fold or %
Myod1 fold increase or percent reduction vs vehicle control (150 mg/kg BIDx1, 24 h): 3.09 fold or %
Nf1 fold increase or percent reduction vs vehicle control (150 mg/kg BIDx1, 24 h): 12.02 fold or %
Nfkb1 fold increase or percent reduction vs vehicle control (150 mg/kg BIDx1, 24 h): 5.42 fold or %
